Reference: patent publication US5328902A, “7-(substituted)-9-[(substituted glycyl)amido]-6-demethyl-6-deoxytetracyclines” (American Cyanamid Co., priority 1992, dated 1994)
In brackets after ≈: the same amount, converted by molar mass. Where a name gives a salt, the structure may show the parent alone.

Legend:
Assay type in all cases: cell-based
[1] = tested on: E. coli UBMS 88-1 Tet B; experiment: microbe, parasite or virus in culture; settings: E. coli UBMS 88-1 Tet B; 18 hours at 35° C.
[2] = tested on: E. coli MC 4100 Tet sens.; experiment: MIC, agar dilution
[3] = tested on: E. coli PRP1 Tet A; experiment: microbe, parasite or virus in culture; settings: E. coli PRP1 Tet A
[4] = tested on: E. coli J3272 Tet C; experiment: microbe, parasite or virus in culture; settings: E. coli J3272 Tet C
[5] = tested on: E. coli UBMS 89-1 Tet M; experiment: microbe, parasite or virus in culture; settings: E. coli UBMS 89-1 Tet M
[6] = tested on: E. coli UBMS 89-2 Tet sens.; experiment: MIC, agar dilution; settings: E. coli UBMS 89-2 Tet sens.
[7] = tested on: E. coli J2175; experiment: MIC, agar dilution; settings: E. coli J2175
[8] = tested on: E. coli BAJ9003 IMP MUT; experiment: microbe, parasite or virus in culture; settings: E. coli BAJ9003 IMP MUT
[9] = tested on: E. coli UBMS 90-4 Tet M; experiment: microbe, parasite or virus in culture; settings: E. coli UBMS 90-4 Tet M
[10] = tested on: E. coli UBMS 90-5; experiment: MIC, agar dilution
[11] = tested on: E. coli #311 (MP); experiment: MIC, agar dilution; settings: E. coli #311 (MP)
[12] = tested on: E. coli ATCC 25922; experiment: MIC, agar dilution; settings: E. coli ATCC 25922
[13] = tested on: E. coli J3272 Tet D; experiment: microbe, parasite or virus in culture; settings: E. coli J3272 Tet D
[14] = tested on: S. mariescens FPOR 8733; experiment: MIC, agar dilution
[15] = tested on: Ps. acruginosa ATCC 27853; experiment: MIC, agar dilution; settings: Ps. acruginosa ATCC 27853
[16] = tested on: S. aureus NEMC 8769; experiment: MIC, agar dilution; settings: S. aureus NEMC 8769
[17] = tested on: S. aureus UBMS 88-4; experiment: MIC, agar dilution; settings: S. aureus UBMS 88-4
[18] = tested on: S. aureus UBMS 88-5 Tet M; experiment: microbe, parasite or virus in culture; settings: S. aureus UBMS 88-5 Tet M
[19] = tested on: S. aureus UBMS 88-7 Tet K; experiment: microbe, parasite or virus in culture; settings: S. aureus UBMS 88-7 Tet K
[20] = tested on: S. aureus UBMS 90-1 Tet M; experiment: microbe, parasite or virus in culture; settings: S. aureus UBMS 90-1 Tet M
[21] = tested on: S. aureus UBMS 90-2 Tet M; experiment: microbe, parasite or virus in culture; settings: S. aureus UBMS 90-2 Tet M
[22] = tested on: S. aureus IVES 2943; experiment: MIC, agar dilution; settings: S. aureus IVES 2943
[23] = tested on: S. aureus ROSE (MP); experiment: MIC, agar dilution; settings: S. aureus ROSE (MP)
[24] = tested on: S. aureus IVES 1 983; experiment: MIC, agar dilution; settings: S. aureus IVES 1 983
[25] = tested on: S. aureus ATCC 29213; experiment: MIC, agar dilution; settings: S. aureus ATCC 29213
[26] = tested on: S. hemolyticus AVHAH 88-3; experiment: MIC, agar dilution; settings: S. hemolyticus AVHAH 88-3
[27] = tested on: Enterococcus 12201; experiment: MIC, agar dilution; settings: Enterococcus 12201
[28] = tested on: S. aureus UBMS 90-3; experiment: MIC, agar dilution; settings: S. aureus UBMS 90-3
[29] = tested on: E. faecalis ATCC 29212; experiment: MIC, agar dilution; settings: E. faecalis ATCC 29212
[30] = tested on: S. aureus SMITH (MP); experiment: MIC, agar dilution; settings: S. aureus SMITH (MP)

Compound: CCCCCCCNCC(=O)Nc1cc(N(C)C)c2c(c1O)C(=O)C1=C(O)[C@]3(O)C(=O)C(C(N)=O)=C(O)[C@@H](N(C)C)C3CC1C2 (stereo partly drawn) [J, [4S-(4alpha,12aalpha)]-4,7-Bis(dimethylamino)-9-[[(heptylamino)acetyl]amino]-l,4,4a,5,5a,6,11,12a-octahydro-3,10,12,12a-tetrahydroxy-1,11-dioxo-2-naphthacenecarboxamide dihydrochloride]
- MIC [1]: 2 µg/mL
- MIC [2]: 1 µg/mL
- MIC [3]: 2 µg/mL
- MIC [4]: 2 µg/mL
- MIC [5]: 0.5 µg/mL
- MIC [6]: 2 µg/mL
- MIC [7]: 2 µg/mL
- MIC [8]: 0.25 µg/mL
- MIC [9]: 2 µg/mL
- MIC [10]: 2 µg/mL
- MIC [11]: 2 µg/mL
- MIC [12]: 2 µg/mL
- MIC [13]: 2 µg/mL
- MIC [14]: 16 µg/mL
- MIC [15]: > 32 µg/mL
- MIC [16]: no
- MIC [17]: 0.5 µg/mL
- MIC [18]: 0.5 µg/mL
- MIC [19]: 1 µg/mL
- MIC [20]: 1 µg/mL
- MIC [21]: 0.5 µg/mL
- MIC [22]: 0.5 µg/mL
- MIC [23]: 2 µg/mL
- MIC [24]: 1 µg/mL
- MIC [25]: 0.5 µg/mL
- MIC [26]: 2 µg/mL
- MIC [27]: 0.5 µg/mL

Compound: CN(C)c1cc(NC(=O)CNCC(F)(F)F)c(O)c2c1CC1CC3C(N(C)C)C(O)=C(C(N)=O)C(=O)C3(O)C(O)=C1C2=O (stereo not drawn) [S, [4S-(4alpha,12aalpha)]-4,7-Bis(dimethylamino)-1,4,4a,5,5a,6,11,12a-octahydro-3,10, 12,12a-tetrahydroxy-1,11-dioxo-9-[[[2,2,2-trifluoroethyl)amino]acetyl]amino-2-naphthacenecarboxamide]
- MIC [1]: 32 µg/mL (≈ 52.3 µM)
- MIC [2]: 16 µg/mL (≈ 26.2 µM)
- MIC [5]: 32 µg/mL (≈ 52.3 µM)
- MIC [6]: > 32 µg/mL
- MIC [7]: > 32 µg/mL
- MIC [10]: > 32 µg/mL
- MIC [11]: > 32 µg/mL
- MIC [12]: > 32 µg/mL
- MIC [14]: > 32 µg/mL
- MIC [15]: > 32 µg/mL
- MIC [16]: 4 µg/mL (≈ 6.54 µM)
- MIC [17]: 4 µg/mL (≈ 6.54 µM)
- MIC [18]: 8 µg/mL (≈ 13.1 µM)
- MIC [19]: 32 µg/mL (≈ 52.3 µM)
- MIC [20]: 16 µg/mL (≈ 26.2 µM)
- MIC [28]: 4 µg/mL (≈ 6.54 µM)
- MIC [21]: 4 µg/mL (≈ 6.54 µM)
- MIC [22]: > 32 µg/mL
- MIC [24]: > 32 µg/mL
- MIC [25]: 4 µg/mL (≈ 6.54 µM)
- MIC [26]: 16 µg/mL (≈ 26.2 µM)
- MIC [27]: 4 µg/mL (≈ 6.54 µM)
- MIC [29]: 2 µg/mL (≈ 3.27 µM)

Compound: [4S-(4alpha,12aalpha)]-4,7-Bis(dimethylamino)-1,4,4a,5,5a,6,11,12a-octahydro-3,10, 12,12a-tetrahydroxy-1,11-dioxo-9-[[(undecylamino)acetyl]amino]-2-naphthacenecarboxamide dihydrochloride
- MIC [1]: 32 µg/mL
- MIC [2]: 2 µg/mL
- MIC [3]: 32 µg/mL
- MIC [5]: 16 µg/mL
- MIC [8]: 1 µg/mL
- MIC [9]: 32 µg/mL
- MIC [11]: 8 µg/mL
- MIC [13]: 32 µg/mL
- MIC [14]: > 32 µg/mL
- MIC [15]: > 32 µg/mL
- MIC [16]: 0.5 µg/mL
- MIC [17]: 0.5 µg/mL
- MIC [18]: 16 µg/mL
- MIC [19]: 2 µg/mL
- MIC [20]: 16 µg/mL
- MIC [28]: 0.5 µg/mL
- MIC [21]: 4 µg/mL
- MIC [23]: 16 µg/mL
- MIC [30]: 0.5 µg/mL
- MIC [25]: 1 µg/mL
- MIC [27]: 4 µg/mL
- MIC [29]: 2 µg/mL
